Measured values from US20220401574A1, “CARDIOPROTECTIVE MICROBUBBLE-LIPOSOMAL DRUG COMPLEXES” (UNIVERSITY OF PITTSBURGH - OF THE COMMONWEALTH SYSTEM OF …, priority 2019, published 2022).
Marks after values point to notes of the source that are not given here.

What was measured:
[1] = cited from earlier work
[2] = Biodistribution assessment with Cy5.5 as Dox analog; assay type: in vivo, mice; conditions: organs harvested 3.5 hours after treatment, imaging
Excerpt: To assess bio-distribution of the drug post ultrasound treatment, Cy5.5 was used as a fluorescent Dox analog, injected i.v. as: Cy5.5-NH2, liposomal Cy5.5, liposomal Cy5.5+MB, Cy5.5LPX, and mice were euthanized 3.5 hrs later. Blood, tumor, spleen, kidney, liver, heart, lung, brain, skin on the back, muscle, femur (bone), and foot were imaged post-mortem and measured using a Xenogen IVIS 200 imaging system.
This example determines the fate of liposomal lipids and Dox after in vivo delivery. […]
To further quantify the distribution of Cy5.5-NH2, tumor, spleen, kidney, liver, heart, and lung were wet-weighed and […] of each tissue specimen were homogenized in 200 μL lysis buffer (50 mM HEPES, 50 mM NaCl, 1% Triton X-100, 5 mM EDTA, and 15 mM DTT) using a sonicator homogenizer (Sonicator Ultrasonic Processor XL, Misonix, Farmingdale, N.Y.) in Eppendorf tubes immersed in an ice-water. […]
50 μL supernatant of each specimen was added in black 384 well plates. Cy5.5-NH2 fluorescence intensity of 3 parallel samples of each organ was determined at Ex/Em 680/710 nm using a plate reader (Infinite 200 PRO, Tecan, Männedorf, Switzerland). […]

[3] = tested on: left ventricular function; test: Assessment of cardiac function by serial echocardiography; assay type: in vivo, mice
Procedure: Two-dimensional short-axis images were obtained using a high-resolution Micro-Ultrasound system (Vevo 2100, VisualSonics Inc.) in B-mode and M-mode from parasternal short-axis view. […] LV mass index was calculated as LV mass/mouse body weight (g) on the day of measurement. […] Tumor volume and cardiac function were serially evaluated for up to 42 days using ultrasound imaging. Echocardiography was performed every 7 days after the 1st treatment. […] Ejection fraction […] and left ventricular (LV) mass index data within each treatment group were compared to that on day 0 (baseline) within the group using a two-tail t-test. The percentage of mice with changes in ejection fraction, fractional shortening and LV mass index, categorized as mild, moderate or severe, was compared between groups using Chi-square test, and differences between two groups were compared using Fisher's exact test. Kaplan-Meier survival curves were compared between groups using the log-rank test for trend.

heart tissue = test: Cardiac histopathology (H&E) and fibrosis analysis (Sirius red/fast green); assay type: in vivo, mice; conditions: for myocardial fibrosis / collagen deposition: Sirius red/fast green staining
Procedure: Routine hematoxylin and eosin (H&E) stained heart tissue slides were made for histologic examination. Sirius red/fast green staining was performed on heart tissue sections post-fixed in paraffin blocks. Twenty-three (23) Images were obtained on an Olympus IX81 microscope interfaced with a digital CCD camera (Olympus DP71) and quantitated using ImageJ 1.5 software.

caspase-3 = test: Caspase-3 activity assay in heart tissue; assay type: in vivo, mice; conditions: heart tissue homogenate
Procedure: Heart tissue was washed twice with cold PBS and lysed in lysis buffer (50 mM HEPES, pH 7.4, with 5 Mm CHAPS, and 5 mM DTT). Tissue lysates were centrifuged at 10,000 rcf for 15 min, and the total protein concentration was measured using a BCA assay kit (Thermo Fisher Scientific, MA). Caspase-3 activity assay was performed in triplicate in 96-well plates. For each protease assay, 200 μL assay buffer (100 mM HEPES, pH 7.2, 10% sucrose, 0.1% CHAPS, 1 Mm Na-EDTA, and 2 mM DTT) containing 50 μM Ac-DEVD-AMC (Enzo life, Farmingdale, N.Y.) was incubated with 50 μg lysate protein at 37° C. for 1 h.
Caspase-3 activity was measured by AMC liberation from Ac-DEVD-AMC substrate at 380/460 nm using a plate reader (Beckman Coulter, DTX-880 Multimode detector, Brea, Calif.). Relative fluorescence of substrate control was subtracted as background emission. Free AMC (Enzo life, NY) was used to make the standard curve: […]

[4] = tested on: MCA 205 murine sarcoma cells; test: Acute cell viability, trypan blue exclusion assay; assay type: cell-based; conditions: 8 μg/mL, without US
Procedure: (§1) MCA 205 murine sarcoma cells (generously provided by Dr. Walter J. Storkus at the University of Pittsburgh School of Medicine) were cultured in RPMI-1640 (Lonza, Biowhittaker, Basel, Switzerland), supplemented with 10% heat deactivated fetal bovine serum (FBS) and 1% penicillin-streptomycin at 37° C., and sub-cultured every 2 days and used before 8 passage.
MCA 205 cells were suspended (5×10^4 cells in 500 μL media) in capped sterile polystyrene tubes. One of the following formulations was added to the tubes: DoxLPX, LDox, free Dox, ELPX, LDox+MB (e.g, unconjugated LDox and MB). […] Cell viability was evaluated 30 min later using the trypan blue exclusion assay where controls comprised identical tubes not exposed to US.
Live cells and total cell number were counted on a hemocytometer using an inverted microscope (Motic AE21, Scientific Instrument Company, Campbell, Calif.). Acute cell viability was quantified as the number of the live cells (trypan blue negative) divided by the total cell numbers. Each treatment condition was repeated independently three times.

[5] = parameters: risk of cardiotoxicity occurrence: dose or concentration left out as unconfirmed; conditions: cited from earlier work
[6] = tested on: MCA 205 murine sarcoma cells; test: Long-term cell viability, alamaBlue assay; assay type: cell-based; conditions: without US, 24, 48, 72 h
Procedure: as §1
Control conditions included cells mixed with free Dox, LDox, DoxLPX, ELPX without US treatment and untreated cells. After 1 h incubation, the wells were replaced with 500 μL fresh media. At 24, 48, and 72 h, the cells were incubated in 500 μL media containing 50 μg/mL alamaBlue® for 1 h. Thereafter, 100 μL media in each well was sampled and assayed on a plate reader (Beckman Coulter, DTX-880 Multimode detector, Brea, Calif.) at a wavelength of λex=530 nm and λem=590 nm. The same volume of media containing alamaBlue® was added in empty wells in the same 24-well plate to be used as the baseline absorbance. The percentage of viability at 24, 48, and 72 h was calculated by normalizing to that of untreated cells. As Dox-induced cytotoxicity takes about 48 hours to manifest, acute cytotoxicity (trypan blue assay) was attributed to ultrasound-microbubble interaction. […]

MCA205 sarcoma = test: In vivo tumor treatment: tumor growth and survival; parameters: species or system mice; conditions: for Median survival time ± standard deviation: US Pulse 3 for MB formulations
Procedure: This example provides in vivo studies were performed using the Pulse 3 US regime. […] Treatments were infused over 15 min via internal jugular indwelling catheter on Days 0, 3, 7, 10.
Murine sarcoma model. The animal protocols were approved by the University of Pittsburgh Institutional Animal Care and Use Committee and conform to the Policy on Human Care and Use of Laboratory Animals. Female mice were used due to their susceptibility to Dox cardiotoxicity. Lipshultz et al., “Assessment of dexrazoxane as a cardioprotectant in doxorubicin-treated children with high-risk acute lymphoblastic leukaemia: long-term follow-up of a prospective, randomised, multicentre trial” Lancet Oncol. […] Eight-week-old female C57BL/6 mice were obtained from Jackson lab and housed in the animal facility of the Division of Laboratory Animal Resources at the University of Pittsburgh.
The pulse was repeated 500 times, with the pulse train repeated every 2.5 s to allow MB reperfusion into the target area. The overall duty cycle was 10%. The spatial peak temporal average intensity was 0.16 W/cm^2. The US treatment was continued for approximately 3-5 minutes after the intravenous MB infusion was completed to achieve complete MB destruction (e.g., ˜12-15 min total sonication time).
Tumor growth was evaluated by high-resolution 3D US imaging of the tumor using automated scanning (Vevo2100, Visualsonics, Ontario, Canada) at 21 MHz with a 0.2-mm step size between cross-sections. Tumor cross-sections were manually outlined and tumor volumes were calculated from 3D reconstructions of the outlined area. This technique can measure subcutaneous tumors with an irregular shape with an accuracy of ±20 mm^3. Tumor growth over time was fit to an exponential curve (y)=X0·e^kt, where X0 represents initial tumor volume, and t stands for time in days. Doubling times (DT) were calculated as DT=(Ln2)/k.
Treatments with various Dox formulations commenced when tumor volume reached 40-90 mm^3. The mice were randomly assigned to 1 of 6 treatment groups.
On the first day of treatment, the tumor bearing mice were anesthetized with 2% isoflurane in oxygen and an indwelling catheter was placed in the internal jugular vein to facilitate multiple intravenous infusions over time. See, FIG. 1B. […] See, FIG. 1B.
Tumor volume and cardiac function were serially evaluated for up to 42 days using ultrasound imaging. Echocardiography was performed every 7 days after the 1st treatment. On day 42, or if tumor volume exceeded 1,600 mm^3 before day 42, the mice were euthanized under deep anesthesia (5% isofluorane). Tumor and heart were harvested, washed with cold saline, then were cryopreserved or fixed with 10% formalin overnight, embedding in paraffin block and sectioning for further histology analysis.

Which results are given for C[N+]1=C(/C=C/C=C/C=C2/N(CCCCCC(=O)NCCCCCCN)c3ccc4ccccc4c3C2(C)C)C(C)(C)c2c1ccc1ccccc21.Cl.[Cl-] [Cy5.5-NH2, Cyanine5.5-amine]?
water solubility [1]: moderate water solubility; acid dissociation constant (pKa) ([1]; primary amine group): higher than 7; ex vivo Cy5.5 fluorescence in organs [2]: noticeable Cy5.5 fluorescence in the heart and skeletal muscle

Which “LVIDs, LVIDd change” value ([3]; Day 14 or Day 21 vs. Day 0) does the source give for COc1cccc2c1C(=O)c1c(O)c3c(c(O)c1C2=O)C[C@@](O)(C(=O)CO)C[C@@H]3O[C@H]1C[C@H](N)[C@H](O)[C@H](C)O1 [Dox, Doxorubicin] here?
Its value is “Significant increases”.

What about the “mice with severely increased LV mass index” value ([3]; Day 21 vs. Day 0) of the same compound?
The value was 20.0%.

And the “mice with severe reduction in EF” value ([3]; day 21)?
Its value is 40%.

What about the “mice with severe reduction in FS” value ([3]; day 21) of the same compound?
The value was 30%.

What about the “LV mass index change” value ([3]; vs. Day 0) of the same compound?
Its value is “significantly increased LV mass index on day 14”.

What about the “LV mass over time” value ([3]; vs. baseline, up to Day 21) of the same compound?
The value was “significantly greater than baseline by Day 14”.

What about the “ejection fraction (EF) and fractional shortening (FS) over time” value ([3]; vs. baseline, up to Day 21) of the same compound?
The value was “progressive decline in ejection fraction (EF) and fractional shortening (FS)”.

And the “myocardial fibrosis / collagen deposition” value (heart tissue)?
Its value is “significantly more areas of patchy myocardial interstitial fibrosis and perivascular fibrosis”.

And the “myocardial fibrosis / collagen deposition” value (heart tissue; listed as free Dox)?
The value was “induced moderate myocardial interstitial and perivascular fibrosis”.

What about the “histological damage to heart tissue” value (heart tissue; hematoxylin/eosin staining, accumulative dosage 20 mg/kg) of the same compound?
The value was “disorganization of myofibrillar arrays (first left panel of Dox group) and focal cytoplasmic vacuolization”.

What about the “caspase-3 activity in cardiac tissue” value (caspase-3) of the same compound?
Its value is “higher than that in mice treated with DoxLPX+US”.

And the cell membrane integrity [4]?
Its cell membrane integrity is “did not change the cell membrane integrity”.

And the “risk of cardiotoxicity occurrence” value ([5]; clinically)?
Its value is 26%.

And the “maximal tolerated cumulative dose” value ([5]; in vivo)?
Its value is 400-550 mg/m2.

What about the “cytotoxicity / cell viability” value ([6]; listed as Free Dox) of the same compound?
Its value is “more cytotoxicity than DoxLPX in the absence of US”.

What about the “cytotoxicity / cell viability” value ([6]; listed as free Dox) of the same compound?
The value was “highest cytotoxicity at 24, 48, and 72 h”.

And the “Median survival time ± standard deviation” value (MCA205 sarcoma; 5 mg/kg equiv. Dox i.v., 4 treatments)?
Its value is 28.0 ± 7.5 days.

And the “Median survival time ± standard deviation” value (MCA205 sarcoma; 5 mg/kg equiv. Dox i.v., 4 treatments, listed as free Dox)?
Its value is 28 days.

What about the “prolongation of median survival” value (MCA205 sarcoma; as compared to controls) of the same compound?
Its value is 14%.

What about the “tumor volume as % of original (baseline) tumor volume” value (MCA205 sarcoma; by Day 17.5) of the same compound?
The value was 610%.

What about the Tumor doubling time (MCA205 sarcoma; exponential fit of tumor volume, 5 mg/kg equiv. Dox i.v., 4 treatments) of the same compound?
The Tumor doubling time was 7.1 ± 1.0**^,# Day.
